Laboratory results: patent US12215085B2 (priority 2019, dated 2025)
Marks after values point to notes of the source that are not given here.

Columns and labels:
[1] = test system: rats with beta-amyloid induced senile dementia; assay: Water maze test, beta-amyloid induced senile dementia rats; assay type: in vivo, rat; settings: for adopted strategy for reaching the platform (the peripheral type and the random type %) / orientation angle for reaching the platform / speed for reaching the platform / swimming path length for reaching the platform / time for reaching the platform: succinate; for orientation angle for reaching the platform / speed for reaching the platform / swimming path length for reaching the platform / time for reaching the platform: x ± s
[2] = test system: rats with common carotid artery occlusion-induced vascular dementia; assay: Step-down test, common carotid artery occlusion-induced vascular dementia rats; assay type: in vivo, rat; settings: for Day 1, Error number / Day 2, Error latency / Day 2, Error number: step-down method, x ± s, succinate
From the text: A rat blood vessel dementia model was made according to the references [ZHAO Xian-lin, FANG Xiu-bin, LI Dong-pei. Establishment of Vascular Dementia Model in Rats, J Chin Med Univ, 2002, 31 (3): 166-168; WANG Yong-yan, Zhang Bo-li, Editor-in-chief. Modern Chinese Medicine Clinic and Research on Vascular Dementia, People's Medical Publishing House, October 2003, First Version 214]: Chloral hydrate 0.4 g/kg was intraperitoneally injected for anesthetizing rats, and bilateral common carotid arteries were isolated and ligated. The animals were fed for 16 weeks, divided into groups on the last 7 days, and administered. The normal control group and the model group were administrated through the intragastric route with distilled water by 0.5 ml/100 g, the positive control group was administrated through the intragastric route with donepezil hydrochloride by 1.75 mg/kg (equivalent to 3.85 times the clinical daily dosage of 5 mg/70 kg), the low, medium and high-dose groups of Crystal Form A of octahydroaminoacridine succinate were administrated through the intragastric route with Crystal Form A of octahydroaminoacridine succinate by 0.7, 1.4 and 2.8 mg/kg (equivalent to 0.96, 1.92 and 3.85 times the clinical daily dosage of 8 mg/70 kg). The water maze test and the step-down test were carried out after continuous administration for 7 days, and the administration was continued during the test period. The water maze test was continuously performed for 7 days, in the first 6 days, in four different water entry points of quadrants 1, 2, 3 and 4, the time, the swimming path length, the orientation angle and the average speed of the rat reaching the platform were measured, meanwhile, the strategy for reaching the platform adopted by rats was observed, on the 7th day, the platform was removed, the number of rats crossing the platform in 2 minutes, the residence time in the platform area, the residence time in the platform quadrants, the percentage of the swimming path length in the platform area quadrants to the total swimming path length, the average speed and the orientation angle were measured. After the water maze test was finished, the step-down test was performed, and the number of electric shocks (or called as the error number) received by each rat within 5 minutes was recorded as the learning performance. The test was performed again after 24 hours, namely, the memory retention test, and the latent period for stepping-down the platform for the first time and the error number in five minutes were recorded. After the step-down test was finished, the brain was taken quickly for pathological examination, and the pathological changes of the hippocampus and the cortex were observed.

[3] = 0.7, 1.4 and 2.8 mg/kg, Day 7, P<0.05 or P<0.01
[4] = Day 1, 0.7 mg/kg intragastric, 0.7 mg/kg
[5] = Day 1, 1.4 mg/kg intragastric, 1.4 mg/kg
[6] = Day 1, 2.8 mg/kg intragastric, 2.8 mg/kg
[7] = Day 2, 0.7 mg/kg intragastric, 0.7 mg/kg
[8] = Day 2, 1.4 mg/kg intragastric, 1.4 mg/kg
[9] = Day 2, 2.8 mg/kg intragastric, 2.8 mg/kg
[10] = Day 3, 0.7 mg/kg intragastric, 0.7 mg/kg
[11] = Day 3, 1.4 mg/kg intragastric, 1.4 mg/kg
[12] = Day 3, 2.8 mg/kg intragastric, 2.8 mg/kg
[13] = Day 4, 0.7 mg/kg intragastric, 0.7 mg/kg
[14] = Day 4, 1.4 mg/kg intragastric, 1.4 mg/kg
[15] = Day 4, 2.8 mg/kg intragastric, 2.8 mg/kg
[16] = Day 5, 0.7 mg/kg intragastric, 0.7 mg/kg
[17] = Day 5, 1.4 mg/kg intragastric, 1.4 mg/kg
[18] = Day 5, 2.8 mg/kg intragastric, 2.8 mg/kg
[19] = Day 6, 0.7 mg/kg intragastric, 0.7 mg/kg
[20] = Day 6, 1.4 mg/kg intragastric, 1.4 mg/kg
[21] = Day 6, 2.8 mg/kg intragastric, 2.8 mg/kg
[22] = 0.7 mg/kg intragastric, 0.7 mg/kg
[23] = 1.4 mg/kg intragastric, 1.4 mg/kg
[24] = 2.8 mg/kg intragastric, 2.8 mg/kg

Nc1c2c(nc3c1CCCC3)CCCC2.O=C(O)CCC(=O)O [Crystal Form A, 9-amino-1,2,3,4,5,6,7,8-octahydroacridine succinate]
latent period for reaching the platform vs model group ([1]; 0.7 mg/kg, Day 1, P<0.05): obviously shortened | latent period for reaching the platform vs model group ([1]; 1.4 mg/kg, Day 1 to Day 6, P<0.05 or P<0.01): obviously shortened | swimming path length for reaching the platform vs model group ([1]; 1.4 mg/kg, Day 3 and Day 5, P<0.05): obviously shortened | percentage of the swimming path length in the platform area quadrants to the total swimming path length vs model group ([1]; 1.4 mg/kg, Day 7, P<0.05): obviously increased | residence time in the platform quadrants vs model group ([1]; 1.4 mg/kg, Day 7, P<0.05): obviously increased | orientation angle vs model group ([1]; 2.8 mg/kg, Day 2, Day 3, Day 5 and Day 6, P<0.05 or P<0.01): obviously decreased | latent period for reaching the platform vs model group ([1]; 2.8 mg/kg, Day 2 to Day 6, P<0.05 or P<0.01): obviously shortened | swimming path length for reaching the platform vs model group ([1]; 2.8 mg/kg, Day 5 and Day 6, P<0.05): obviously shortened | swimming speed vs model group ([1]; 0.7, 1.4 and 2.8 mg/kg, Day 1, P<0.05): obviously increased | average speed and orientation angle vs model group ([1]; 0.7, 1.4 and 2.8 mg/kg, Day 7): not obviously changed | number of rats crossing the platform within 2 minutes vs model group [1, 3]: obviously increased | residence time on the platform vs model group [1, 3]: obviously increased | conversion from the peripheral type and the random type to the tendency type and the linear type in the strategy for looking for the platform ([1]; 0.7, 1.4 and 2.8 mg/kg, P<0.05 or P<0.01): obviously increased | orientation angle vs model group ([1]; 0.7 and 1.4 mg/kg, Day 2, P<0.05): obviously decreased | adopted strategy for reaching the platform (the peripheral type and the random type %) [1, 4]: 87.50% | orientation angle for reaching the platform [1, 4]: 62.79 ± 19.80 ° | speed for reaching the platform [1, 4]: 22.41 ± 7.84 cm/s | swimming path length for reaching the platform [1, 4]: 1169.52 ± 985.73 cm | time for reaching the platform [1, 4]: 51.79 ± 26.01 s | adopted strategy for reaching the platform (the peripheral type and the random type %) [1, 5]: 92.50% | orientation angle for reaching the platform [1, 5]: 77.42 ± 21.94 ° | speed for reaching the platform [1, 5]: 21.16 ± 5.82 cm/s | swimming path length for reaching the platform [1, 5]: 1022.59 ± 558.57 cm | time for reaching the platform [1, 5]: 47.00 ± 19.96 s | adopted strategy for reaching the platform (the peripheral type and the random type %) [1, 6]: 95.50% | orientation angle for reaching the platform [1, 6]: 61.45 ± 13.71 ° | speed for reaching the platform [1, 6]: 19.76 ± 2.88 cm/s | swimming path length for reaching the platform [1, 6]: 1215.28 ± 534.19 cm | time for reaching the platform [1, 6]: 65.22 ± 26.94 s | adopted strategy for reaching the platform (the peripheral type and the random type %) [1, 7]: 68.75% | orientation angle for reaching the platform [1, 7]: 48.33 ± 25.33 ° | speed for reaching the platform [1, 7]: 28.34 ± 10.42 cm/s | swimming path length for reaching the platform [1, 7]: 762.15 ± 878.65 cm | time for reaching the platform [1, 7]: 29.20 ± 28.52 s | adopted strategy for reaching the platform (the peripheral type and the random type %) [1, 8]: 77.50% | orientation angle for reaching the platform [1, 8]: 53.95 ± 19.36 ° | speed for reaching the platform [1, 8]: 24.65 ± 5.95 cm/s | swimming path length for reaching the platform [1, 8]: 657.63 ± 419.44 cm | time for reaching the platform [1, 8]: 29.60 ± 18.83 s | adopted strategy for reaching the platform (the peripheral type and the random type %) [1, 9]: 67.50* % | orientation angle for reaching the platform [1, 9]: 42.58 ± 17.57 ° | speed for reaching the platform [1, 9]: 23.62 ± 5.04 cm/s | swimming path length for reaching the platform [1, 9]: 717.16 ± 484.50 cm | time for reaching the platform [1, 9]: 27.92 ± 18.96 s | adopted strategy for reaching the platform (the peripheral type and the random type %) [1, 10]: 87.50% | orientation angle for reaching the platform [1, 10]: 59.46 ± 34.15 ° | speed for reaching the platform [1, 10]: 25.56 ± 10.30 cm/s | swimming path length for reaching the platform [1, 10]: 922.69 ± 927.53 cm | time for reaching the platform [1, 10]: 39.88 ± 39.00 s | adopted strategy for reaching the platform (the peripheral type and the random type %) [1, 11]: 70.50% | orientation angle for reaching the platform [1, 11]: 49.79 ± 16.12 ° | speed for reaching the platform [1, 11]: 23.53 ± 5.74 cm/s | swimming path length for reaching the platform [1, 11]: 359.75 ± 164.16 cm | time for reaching the platform [1, 11]: 15.74 ± 5.83 s | adopted strategy for reaching the platform (the peripheral type and the random type %) [1, 12]: 70.00% | orientation angle for reaching the platform [1, 12]: 41.19 ± 18.30 ° | speed for reaching the platform [1, 12]: 22.47 ± 2.59 cm/s | swimming path length for reaching the platform [1, 12]: 426.44 ± 213.56 cm | time for reaching the platform [1, 12]: 20.24 ± 10.26 s | adopted strategy for reaching the platform (the peripheral type and the random type %) [1, 13]: 64.50* % | orientation angle for reaching the platform [1, 13]: 47.21 ± 18.21 ° | speed for reaching the platform [1, 13]: 24.92 ± 2.52 cm/s | swimming path length for reaching the platform [1, 13]: 806.38 ± 1014.62 cm | time for reaching the platform [1, 13]: 32.05 ± 39.88 s | adopted strategy for reaching the platform (the peripheral type and the random type %) [1, 14]: 77.50% | orientation angle for reaching the platform [1, 14]: 53.54 ± 25.57 ° | speed for reaching the platform [1, 14]: 25.56 ± 4.54 cm/s | swimming path length for reaching the platform [1, 14]: 493.65 ± 256.60 cm | time for reaching the platform [1, 14]: 20.82 ± 11.32 s | adopted strategy for reaching the platform (the peripheral type and the random type %) [1, 15]: 67.50* % | orientation angle for reaching the platform [1, 15]: 47.22 ± 23.29 ° | speed for reaching the platform [1, 15]: 27.31 ± 4.62 cm/s | swimming path length for reaching the platform [1, 15]: 600.43 ± 563.07 cm | time for reaching the platform [1, 15]: 22.73 ± 21.88 s | adopted strategy for reaching the platform (the peripheral type and the random type %) [1, 16]: 75.50* % | orientation angle for reaching the platform [1, 16]: 54.72 ± 24.68 ° | speed for reaching the platform [1, 16]: 27.17 ± 13.51 cm/s | swimming path length for reaching the platform [1, 16]: 571.38 ± 716.43 cm | time for reaching the platform [1, 16]: 25.95 ± 33.84 s | adopted strategy for reaching the platform (the peripheral type and the random type %) [1, 17]: 57.50* % | orientation angle for reaching the platform [1, 17]: 53.41 ± 23.18 ° | speed for reaching the platform [1, 17]: 20.14 ± 4.25 cm/s | swimming path length for reaching the platform [1, 17]: 278.26 ± 125.79 cm | time for reaching the platform [1, 17]: 14.95 ± 9.19 s | adopted strategy for reaching the platform (the peripheral type and the random type %) [1, 18]: 68.00** % | orientation angle for reaching the platform [1, 18]: 43.23 ± 15.80 ° | speed for reaching the platform [1, 18]: 23.96 ± 4.94 cm/s | swimming path length for reaching the platform [1, 18]: 312.55 ± 230.50 cm | time for reaching the platform [1, 18]: 14.17 ± 11.56 s | adopted strategy for reaching the platform (the peripheral type and the random type %) [1, 19]: 65.50% | orientation angle for reaching the platform [1, 19]: 46.47 ± 18.69 ° | speed for reaching the platform [1, 19]: 23.50 ± 9.00 cm/s | swimming path length for reaching the platform [1, 19]: 461.68 ± 417.67 cm | time for reaching the platform [1, 19]: 21.76 ± 23.11 s | adopted strategy for reaching the platform (the peripheral type and the random type %) [1, 20]: 68.50% | orientation angle for reaching the platform [1, 20]: 46.29 ± 22.64 ° | speed for reaching the platform [1, 20]: 20.87 ± 4.35 cm/s | swimming path length for reaching the platform [1, 20]: 402.97 ± 434.93 cm | time for reaching the platform [1, 20]: 20.62 ± 22.63 s | adopted strategy for reaching the platform (the peripheral type and the random type %) [1, 21]: 52.50** % | orientation angle for reaching the platform [1, 21]: 40.91 ± 15.25 ° | speed for reaching the platform [1, 21]: 24.73 ± 4.83 cm/s | swimming path length for reaching the platform [1, 21]: 252.87 ± 161.30 cm | time for reaching the platform [1, 21]: 10.70 ± 6.74 s | step-down error number vs model group ([2]; 1.4 mg/kg, Day 2, P<0.05): obviously reduced | step-down error number vs model group ([2]; 2.8 mg/kg, Day 1 and Day 2, P<0.05): obviously reduced | error latency vs model group ([2]; 2.8 mg/kg, Day 2, P<0.05): obviously prolonged | Day 1, Error number [2, 22]: 7.50 ± 4.06 | Day 2, Error latency [2, 22]: 215.30 ± 83.07 s | Day 2, Error number [2, 22]: 1.70 ± 1.49 | Day 1, Error number [2, 23]: 6.60 ± 2.88 | Day 2, Error latency [2, 23]: 223.70 ± 75.02 s | Day 2, Error number [2, 23]: 1.30 ± 1.25 | Day 1, Error number [2, 24]: 5.80 ± 2.65 | Day 2, Error latency [2, 24]: 250.10 ± 72.32 s | Day 2, Error number [2, 24]: 0.90 ± 1.28
